# Results published in US7423009B2, “Method for treatment of kidney diseases” (Kowa Company, Ltd., priority 2002, dated 2008).
# Test system: nephritis induced by anti-GBM antiserum in wild type mouse
# Test: Nephritis induced by anti-GBM antiserum in wild type mice: amount of albumin in urine
# Format: in vivo
# Details: for amount of albumin in urine: urine collected 18 hours after final administration
# Method: (§1) Anti-GBM antiserum was administered to the wild type mice to induce nephritis, the mice were classified into three groups and the first group was administered with a peptide having an amino acid sequence of SLIGRL which is a selective stimulant for PAR-2 while the second group was administered with prednisolone which has been used as a treating agent for nephritis. In each group, administration was conducted once daily for consecutive seven days. The third group was a group which was not treated with a drug (control group). Further, for comparison, another untreated group where no anti-GBM antiserum was administered was prepared as the fourth group (in each group, n=6).
# Immediately after the final administration of the drug solution, urine was collected for 18 hours and the amount of albumin in urine was measured.
# as §1, with “In the same manner, anti-GBM” for “Anti-GBM”, “ASKH95” for “a peptide having an amino acid sequence of SLIGRL”, “group)” for “group). Further, for comparison, another untreated group where no anti-GBM antiserum was administered was prepared as the fourth group”
# Nephritis was induced by a single administration of […] having about 16-fold of titer of antibody in an amount of 0.4 ml per mouse into tail vein (Jpn. J. Pharmacol., 33, 1145-1154, 1983). With regard to the amount of albumin in urine used as an index for nephritis, the amount of albumin in urine collected for 18 hours using a metabolic cage (manufactured by Sugiyamagen) was determined using an ELISA kit manufactured by Exocel and expressed in terms of μg/18 hours/100 g body weight. The resulting data were analyzed by a Student t-test and evaluated.
# (§2) Anti-GBM antiserum was administered to a wild type mouse and, immediately after that, 0.3 μmol/kg of SLIGRL which is a selective stimulant for PAR-2 dissolved in a phosphate buffer or 3 mg/kg of prednisolone suspended in 0.5% methyl cellulose solution was administered thereto once daily for consecutive seven days (in each group, n=6). SLIGRL was administered to tail vein with a dose of 1 ml/100 g body weight at the rate of 0.1 ml/second. Prednisolone was compulsorily administered per os with a dose of 1 ml/100 g body weight. As a control, a group which was not treated with a drug (control group) was set up. As from immediately after the final administration of the drug solution, urine was collected for 18 hours using a metabolic cage and the amount of albumin in urine was measured.
# as §2, with “In the same manner as example 3, anti-GBM” for “Anti-GBM”, “10 mg/kg” for “0.3 μmol/kg”, “ASKH95” for “SLIGRL”, “measured. Incidentally, ASKH95 is synthesized according to the literature (J. Clin. Invest. 111, 35-41, 2003), and used.” for “measured.”
compound,measurement,setting,value
2-furoyl-LIGKV-OH [ASKH95],effect on amount of albumin in urine compared with control group (in words),"Example 4, ASKH95 10 mg/kg to tail vein once daily for seven days",decreased significantly
same,amount of albumin in urine,"Example 4, ASKH95 10 mg/kg to tail vein once daily for seven days, control group 81319.0±8884.3",34709.6±8703.3 μg/18 hours/100 g body weight
C[C@]12C=CC(=O)C=C1CC[C@@H]1[C@@H]2[C@@H](O)C[C@@]2(C)[C@H]1CC[C@]2(O)C(=O)CO [prednisolone],amount of albumin in urine reduced to an extent of % of the control group,"Example 3, prednisolone 3 mg/kg per os once daily for seven days, not a significant suppression",52.7%
same,amount of albumin in urine,"Example 3, prednisolone 3 mg/kg per os once daily for seven days, control group 3528.5±1238.6",1670.6±579.4 μg/18 hours/100 g body weight
same,effect on amount of albumin in urine compared with control group (in words),"Example 4, prednisolone 3 mg/kg per os once daily for seven days",almost no effect
same,amount of albumin in urine,"Example 4, prednisolone 3 mg/kg per os once daily for seven days, control group 81319.0±8884.3",75692.1±12846.9 μg/18 hours/100 g body weight
SLIGRL,amount of albumin in urine,"Example 3, SLIGRL 0.3 μmol/kg to tail vein once daily for seven days, control group 3528.5±1238.6",104.2±54.0 μg/18 hours/100 g body weight
same,decrease of amount of albumin in urine,"Example 3, SLIGRL 0.3 μmol/kg to tail vein once daily for seven days, versus control group, significant",97.0%
